# Measured values from US11767322B2 (BRISTOL-MYERS SQUIBB COMPANY, priority 2020, dated 2023).
# Read-outs that look alike come from different tables or passages of the source.
# What was measured:
# [1] = target: T1, His-GST-TVMV-hRIPK1(1-324) (Homo sapiens, UniProt Q13546); experiment: biochemical; assay type: binding
# T1 construct: The coding region of human RIPK1(1-324) flanked by NdeI site at 5′ end; made in house; host or cells: Spodoptera frugiperda Sf9 insect cells (baculovirus, Bac-to-Bac)
# T1 sequence (Q13546 1-324): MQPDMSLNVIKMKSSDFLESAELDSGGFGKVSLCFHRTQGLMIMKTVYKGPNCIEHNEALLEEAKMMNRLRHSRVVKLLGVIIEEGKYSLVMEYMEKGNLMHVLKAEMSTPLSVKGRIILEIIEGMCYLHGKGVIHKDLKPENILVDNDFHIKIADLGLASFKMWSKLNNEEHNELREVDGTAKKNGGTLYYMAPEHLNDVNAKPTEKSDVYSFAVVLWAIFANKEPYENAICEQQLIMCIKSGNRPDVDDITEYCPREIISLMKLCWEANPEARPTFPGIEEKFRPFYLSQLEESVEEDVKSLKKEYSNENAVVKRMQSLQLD
# [2] = tested on: MLKL phosphorylation in HT29-L23 human colorectal adenocarcinoma cells; experiment: MLKL phosphorylation high-content assay; assay type: cell-based
# [3] = HTRF probe displacement, 1 h at rt, read-out: RIPK1 IC50
# [4] = Homo sapiens, 6 h, read-out: pMLKL IC50, HT29-L23 cells, necroptosis induced with TNFα, SMAC mimetic and Z-VAD, 6 h, maximal inhibition defined by Nec1s
# [5] = read-out: pMLKL IC50, HT29-L23 cells, necroptosis induced with TNFα, SMAC mimetic and Z-VAD, 6 h, maximal inhibition defined by Nec1s
# [6] = Table 23, representative compounds from WO2018/148626, read-out: RIPK1 IC50
# [7] = Homo sapiens, Table 23, representative compounds from WO2018/148626, read-out: pMLKL IC50
Structure (SMILES),"IC50 [1, 3] [nM]","IC50 [2, 4] [nM]","IC50 [2, 5] [nM]",other results
"Nc1nc2cc(-c3ccc(Cl)c(C(=O)NCCC(O)c4ccc(F)cc4)c3F)ccn2n1 (single isomer, unassigned) [Example 80, 3-(2-amino-[1,2,4]triazolo[1,5-a]pyridin-7-yl)-6-chloro-2-fluoro-N-(3-(4-fluorophenyl)-3-hydroxypropyl)benzamide]",9,27,,
"Cc1ccc(-c2ccn3nc(N)nc3c2)c(F)c1C(=O)NCCC(O)c1ccc(C(F)(F)F)cc1 (centres unmarked) [Example 55, 3-(2-amino-[1,2,4]triazolo[1,5-a]pyridin-7-yl)-2-fluoro-N-(3-hydroxy-3-(4-(trifluoromethyl)phenyl)propyl)-6-methylbenzamide]",0.3,0.9,,
"Nc1nc2cc(-c3ccc(Cl)c(C(=O)NCC(F)(F)C(O)c4ccc(Cl)cc4F)c3F)ccn2n1 (single isomer, unassigned) [Example 163, 3-(2-amino-[1,2,4]triazolo[1,5-a]pyridin-7-yl)-6-chloro-N-(3-(4-chloro-2-fluorophenyl)-2,2-difluoro-3-hydroxypropyl)-2-fluorobenzamide]",0.3,,1.3,
"Cc1ccc(-c2ccn3nc(N)nc3c2)c(F)c1C(=O)NCC(F)(F)C(OP(=O)(O)O)c1ccc(F)cc1 (racemic) [Example 161, 3-(3-(2-amino-[1,2,4]triazolo[1,5-a]pyridin-7-yl)-2-fluoro-6-methylbenzamido)-2,2-difluoro-1-(4-fluorophenyl)propyl dihydrogen phosphate, racemate]",> 15000,135,,
"Nc1nc2cc(-c3ccc(Cl)c(C(=O)NCC(F)(F)C(O)c4cccc(F)c4F)c3F)ccn2n1 (single isomer, unassigned) [Example 166, 3-(2-amino-[1,2,4]triazolo[1,5-a]pyridin-7-yl)-6-chloro-N-(3-(2,3-difluorophenyl)-2,2-difluoro-3-hydroxypropyl)-2-fluorobenzamide]",2.1,5.1,,
"Nc1nc2cc(-c3ccc(Cl)c(C(=O)NCC(F)(F)C(O)c4ccc(Cl)cc4F)c3F)ccn2n1 (single isomer, unassigned) [Example 162, 3-(2-amino-[1,2,4]triazolo[1,5-a]pyridin-7-yl)-6-chloro-N-(3-(4-chloro-2-fluorophenyl)-2,2-difluoro-3-hydroxypropyl)-2-fluorobenzamide]",1.6,,3.1,
"Nc1nc2cc(-c3ccc(Cl)c(C(=O)NCC(F)(F)C(O)c4cc(Cl)ccc4F)c3F)ccn2n1 (centres unmarked) [Example 181, 3-(2-amino-[1,2,4]triazolo[1,5-a]pryidin-7-yl)-6-chloro-N-(3-(5-chloro-2-fluorophenyl)-2,2-difluoro-3-hydroxypropyl)-2-fluorobenzamide]",1.7,,0.3,
"Cc1ccc(-c2ccn3nc(N)nc3c2C)c(F)c1C(=O)NCC[C@H](O)c1ccc(Cl)cc1 (single isomer, unassigned; enantiomer 2) [Example 138]",11,,,"IC50 ([2]; HT29-L23 cells, necroptosis induced with TNFα, SMAC mimetic and Z-VAD, 6 h, maximal inhibition defined by Nec1s, read-out: pMLKL IC50): 0.2 nM"
"COC(c1ccc(F)cc1)C(F)(F)CNC(=O)c1c(C)ccc(-c2ccn3nc(N)nc3c2)c1F (single isomer, unassigned) [Example 233, 3-(2-amino-[1,2,4]triazolo[1,5-a]pyridin-7-yl)-N-(2,2-difluoro-3-(4-fluorophenyl)-3-methoxypropyl)-2-fluoro-6-methylbenzamide]",2.6,,0.5,
"Cc1ncc(-c2ccn3nc(N)nc3c2)cc1C(=O)NCC(C)(O)Cc1ccc(F)cc1 (centres unmarked) [Compound 421 from WO2018/148626, reference compound]",,,,"IC50 [1, 6]: 110 nM; IC50 [2, 7]: 315 nM"
"[2H]C([2H])([2H])c1ccc(-c2ccn3nc(N)nc3c2)c(F)c1C(=O)NC[C@@H](F)[C@@](C)(O)c1ccc(F)cc1 [Example 216, 3-(2-amino-[1,2,4]triazolo[1,5-a]pyridin-7-yl)-2-fluoro-N-((2R,3S)-2-fluoro-3-(4-fluorophenyl)-3-hydroxybutyl)-6-(methyl-d3)benzamide]",4.7,0.4,,
"Cc1ccc(-c2ccn3nc(N)nc3c2)c(F)c1C(=O)NCCC(O)c1ccc(F)cc1 (centres unmarked) [Example 49, 3-(2-amino-[1,2,4]triazolo[1,5-a]pyridin-7-yl)-2-fluoro-N-(3-(4-fluorophenyl)-3-hydroxypropyl)-6-methylbenzamide]",2.5,2.6,,"IC50 ([1]; Table 22, compounds of the present invention, read-out: RPIK1 IC50): 2.5 nM; IC50 ([2]; Homo sapiens, read-out: pMLKL IC50, Table 22, compounds of the present invention): 2.6 nM"
"Cc1ccc(-c2ccn3nc(N)nc3c2)c(F)c1C(=O)NCC(C)(F)C(O)c1ccc(F)cc1 (single isomer, unassigned) [Example 204, 3-(2-amino-[1,2,4]triazolo[1,5-a]pyridin-7-yl)-2-fluoro-N-(2-fluoro-3-(4-fluorophenyl)-3-hydroxy-2-methylpropyl)-6-methylbenzamide]",5.8,,2.7,
"[2H]C(O)(c1ccc(C(F)F)cc1)C(F)(F)CNC(=O)c1c(Cl)ccc(-c2ccn3nc(N)nc3c2)c1F (single isomer, unassigned) [Example 312, 3-(2-amino-[1,2,4]triazolo[1,5-a]pyridin-7-yl)-6-chloro-N-(3-(4-(difluoromethyl)phenyl)-2,2-difluoro-3-hydroxypropyl-3-d)-2-fluorobenzamide]",5.7,,0.9,
"Nc1nc2cc(-c3ccc(Cl)c(C(=O)NCC(F)C(O)c4ccc(Cl)cc4)c3F)ccn2n1 (centres unmarked) [Example 128, 3-(2-amino-[1,2,4]triazolo[1,5-a]pyridin-7-yl)-6-chloro-N-(3-(4-chlorophenyl)-2-fluoro-3-hydroxypropyl)-2-fluorobenzamide]",5,1.2,,
"Nc1nc2cc(-c3ccc(Cl)c(C(=O)NCC(F)(F)C(O)c4cccc(Cl)c4)c3F)ccn2n1 (centres unmarked) [Example 193, 3-(2-amino-[1,2,4]triazolo[1,5-a]pyridin-7-yl)-6-chloro-N-(3-(3-chlorophenyl)-2,2-difluoro-3-hydroxypropyl)-2-fluorobenzamide]",8.7,,15,
"Nc1nc2cc(-c3ccc(Cl)c(C(=O)NCC(F)(F)C(O)c4cccc(Cl)c4F)c3F)ccn2n1 (single isomer, unassigned) [Example 171, 3-(2-amino-[1,2,4]triazolo[1,5-a]pyridin-7-yl)-6-chloro-N-(3-(3-chloro-2-fluorophenyl)-2,2-difluoro-3-hydroxypropyl)-2-fluorobenzamide]",1.6,,10,
COc1ncc(-c2ccn3nc(N)nc3c2)cc1C(=O)NCCC(O)c1ccc(F)cc1 (centres unmarked) [Example 78],,,,"IC50 [1, 6]: 120 nM; IC50 [2, 7]: 146 nM"
"Cc1ccc(-c2ccn3nc(N)nc3c2)c(F)c1C(=O)NCC(C)(F)C(O)c1ccc(F)cc1 (single isomer, unassigned) [Example 205, 3-(2-amino-[1,2,4]triazolo[1,5-a]pyridin-7-yl)-2-fluoro-N-(2-fluoro-3-(4-fluorophenyl)-3-hydroxy-2-methylpropyl)-6-methylbenzamide]",6.2,,5.1,
"Nc1nc2cc(-c3ccc(Cl)c(C(=O)NCC(F)(F)C4(c5ccc(F)cc5)COC4)c3F)ccn2n1 [Example 245, 3-(2-amino-[1,2,4]triazolo[1,5-a]pyridin-7-yl)-6-chloro-N-(2,2-difluoro-2-(3-(4-fluorophenyl)oxetan-3-yl)ethyl)-2-fluorobenzamide]",19,3.7,,
"[2H]C([2H])([2H])c1ccc(C(O)C(F)(F)CNC(=O)c2c(C([2H])([2H])[2H])ccc(-c3ccn4nc(N)nc4c3)c2F)cc1 (single isomer, unassigned) [Example 201, 3-(2-amino-[1,2,4]triazolo[1,5-a]pyridin-7-yl)-N-(2,2-difluoro-3-hydroxy-3-(4-(methyl-d3)phenyl)propyl)-2-fluoro-6-(methyl-d3)benzamide]",6.7,,0.9,
"Cc1ccc(-c2ccn3nc(N)nc3c2)c(F)c1C(=O)NCC(F)(F)[C@@H](OC(N)=O)c1ccc(F)cc1 [Example 276, (S)-3-(3-(2-amino-[1,2,4]triazolo[1,5-a]pyridin-7-yl)-2-fluoro-6-methylbenzamido)-2,2-difluoro-1-(4-fluorophenyl)propyl carbamate]",3.7,8.4,,
"Cc1ccc(-c2ccn3nc(N)nc3c2)c(F)c1C(=O)NCCC(C)(O)c1ccc(Cl)cc1 (racemic) [Example 17, 3-(2-amino-[1,2,4]triazolo[1,5-a]pyridin-7-yl)-N-(3-(4-chlorophenyl)-3-hydroxybutyl)-2-fluoro-6-methylbenzamide]",1.9,2.5,,
"Nc1nc2cc(-c3ccc(C(F)(F)F)c(C(=O)NCC(F)(F)[C@@H](O)c4ccc(F)cc4)c3F)ccn2n1 [Example 315, (S)-3-(2-amino-[1,2,4]triazolo[1,5-a]pyridin-7-yl)-N-(2,2-difluoro-3-(4-fluorophenyl)-3-hydroxypropyl)-2-fluoro-6-(trifluoromethyl)benzamide]",6.9,0.4,,
